Laboratory results as given in US6362166B1, “Antipicornaviral compounds and methods for their use and preparation” (Agouron Pharmaceuticals, Inc., priority 1996, dated 2002).
pEC50, pKi: −log10 of the molar value. Like-named read-outs stand apart in the source and are kept apart here.

Key:
HI-HeLa cells = test: Cytotoxicity in mock-infected HI-HeLa cells (antirhinoviral assay, XTT); type: cell-based
Experimental: (§1) HI-HeLa cells were infected with HRV-14 at a multiplicity of infection (m.o.i.) of 0.13 (virus particles/cell) or mock-infected with medium only. Infected or mock-infected cells were resuspended at 8×10^5 cells per mL and incubated with appropriate concentration of compounds of formulas I and II. Two days later, XTT/PMS was added to test plates and the amount of formazan produced was quantified spectrophotometrically at 450/650 nm. […] The therapeutic index (TI) was calculated by dividing the CC50 by the EC50.
(§2) All strains of human rhinovirus (HRV) for use in this assay were purchased from American Type Culture Collection (ATCC), except for HRV serotype-14, which was produced from the infectious cDNA clone, constructed and supplied to us by Dr. Roland Rueckert at the Institue for Molecular Virology, University of Wisconsin, Madison, Wisc. HRV stocks were propagated, and antiviral assays were perforemd in HI-HeLa cells (ATCC). Cells were grwon in Minimal Essential Medium, available from Life Technologies, with 10% fetal bovine serum.

HRV-14 = test: Antirhinoviral HI-HeLa Cell Culture Assay (Cell Protection Assay, XTT dye reduction); type: cell-based, human rhinovirus (HRV) serotype-14; conditions: HI-HeLa cells infected with HRV-14, m.o.i. 0.13; two days; XTT; read-out: EC50
Experimental: In the Cell Protection Assay, the ability of compounds to protect cells against HRV infection was measured by the XTT dye reduction method. This method is described in Weislow, O. S., R. Kiser, D. L. Fine, J. Bader, R. H. Shoemaker, and M. R. Boyd, J. Natl. Cancer Inst. 1989, 81, 577-586, which is incorporated herein by reference.
as §1, §2
The compounds were tested against control compounds WIN 51711, WIN 52084, and WIN 54954, all obtained from Sterling-Winthrop Pharmaceuticals, and control compound Pirodavir, obtained from Janssen Pharmaceuticals.

[1] = biological target: T1, Recombinant Rhinovirus 3C protease (RVP) serotype-14 (Human rhinovirus 14, UniProt P03303); test: Inhibition of Rhinovirus Protease (fluorescence resonance energy transfer assay), serotype 14; type: biochemical, human rhinovirus (HRV); conditions: RVP serotype-14; for INHIB (percent inhibition): 10 minute preincubation with 50 nM RVP; for kobs/I: progress curves in enzyme start experiments; for pKi: 10 minute preincubation, substrate start, read-out: INHIB (Ki)
T1 construct: Recombinant Rhinovirus 3C proteases from serotypes 14, 16, 2 or 89; made in house
Experimental: Stock solution (50 mM, in DMSO) of various compounds were prepared; dilutions were in the same solvent. […] Assays contained 2% DMSO, 50 mM tris pH 7.6, 1 mM EDTA, a compound at the indicated concentrations, approximately 1 μM substrate, and 50-100 nM protease. […] The kobs/I values were obtained from reactions initiated by addition of enzyme rather than substrate. RVP activity is measured in the fluorescence resonance energy transfer assay. […] In the uncleaved peptide, the EDANS fluorescence was quenched by the proximal DABCYL moeity. When the peptide was cleaved, the quenching was relieved, and activity was measured as an increase in fluorescence signal.
In the above table, all data is RVP serotype-14 unless otherwise noted in parentheses. All strains of human rhinovirus (HRV) were purchased from American Type Culture Collection (ATCC), except for serotype 14, which was produced from the infectious cDNA clone constructed and supplied to us by Dr. Roland Rueckert at the Institute for Molecular Virology, University of Wisconsin, Madison, Wisc. […] The data in the column designated kobs/I was measured from progress curves in enzyme start experiments.

T1 sequence (P03303 1538-1719): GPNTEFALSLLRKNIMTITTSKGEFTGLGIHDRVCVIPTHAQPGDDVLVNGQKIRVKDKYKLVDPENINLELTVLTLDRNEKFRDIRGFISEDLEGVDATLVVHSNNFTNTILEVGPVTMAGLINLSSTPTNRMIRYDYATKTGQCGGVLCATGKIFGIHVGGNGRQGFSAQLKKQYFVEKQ

Structure (SMILES)	CC50 (HI-HeLa cells)	pEC50 (HRV-14)	INHIB (percent inhibition) ([1]; 1 μM compound)	kobs/I [1]	CC50 (HI-HeLa cells; mock-infected HI-HeLa cells, two days, XTT, read-out: CC50)	pKi [1]	INHIB (percent inhibition) ([1]; 5 μM compound)	INHIB (percent inhibition) [1]
CC(C)C[C@H](NC(=O)OCc1ccccc1)C(=O)N[C@@H](Cc1ccccc1)C(=O)N[C@H](/C=C/S(C)(=O)=O)CCC(N)=O [Compound 9, Methyl-[2-(CBZ-L-Leu-L-Phe-L-Gln)-E-Vinyl]Sulfone]	> 320 µM	< 3.49	20(1) percent	160 M⁻¹ s⁻¹	–	–	–	–
CCOC(=O)/C=C/[C@H](CCC(N)=O)NC(=O)[C@H](Cc1ccc(OP(=O)(O)O)cc1)NC(=O)[C@H](CC(C)C)NC(=O)OCc1ccccc1 [Compound 105]	–	4.85	–	1,200 M-1 sec-1	> 320 µM	–	–	–
CC(=O)N1CC/C(=C\[C@H](CCC(N)=O)NC(=O)[C@H](Cc2ccccc2)NC(=O)[C@H](CC(C)C)NC(=O)OCc2ccccc2)C1=O [Compound 164]	> 100 µM	6.15	–	155,500 M-1 sec-1	–	–	–	–
CCOC(=O)/C=C/[C@H](CCC(N)=O)NC(=O)[C@H](Cc1cccc(F)c1)NC(=O)c1cc2c(OC)cccc2[nH]1 [Compound 28, Ethyl-3-[N-(4-Methoxyindole-2-Carbonyl)-L-(3-F-Phe)-L-Gln]-E-Propenoate]	63.1 µM	5.35	–	4,000 M-1 sec-1	–	4.24	–	–
CC(C)C[C@H](NC(=O)OCc1ccccc1)C(=O)N[C@@H](Cc1ccccc1)C(=O)N[C@H](/C=C/S(=O)(=O)c1ccccc1)CCC(N)=O [Compound 10, Phenyl-[2-(CBZ-L-Leu-L-Phe-L-Gln)-E-Vinyl]Sulfone]	> 320 µM	3.70	–	270 M⁻¹ s⁻¹	–	–	55(5) percent	–
CCOC(=O)/C=C/[C@H](CCC(N)=O)NC(=O)[C@H](Cc1ccc(F)cc1)NC(=O)[C@@H](NC(=O)SC1CCCC1)C(C)C [Compound 184]	> 100 µM	6.72	–	59,900 M-1 sec-1	–	–	–	–
CCOC(=O)/C=C/[C@H](CCC(N)=O)NC(=O)[C@H](Cc1ccccc1)NC(=O)[C@H](CC(C)C)NC(=O)OC [Compound 110]	> 320 µM	5.89	–	9,072 M-1 sec-1	–	–	–	–
CC(C)C[C@H](NC(=O)OCc1ccccc1)C(=O)N[C@@H](Cc1ccccc1)C(=O)N[C@H](/C=C/C(=O)O)CCC(N)=O [Compound 15, 3-(CBZ-L-Leu-L-Phe-L-Gln)-E-Propenoic Acid]	> 100 µM	< 4.00	–	27 M⁻¹ s⁻¹	–	–	–	55(50) percent
CC(C)C[C@H](NC(=O)OCc1ccccc1)C(=O)N[C@@H](Cc1ccccc1)C(=O)N[C@H](/C=C/C(=O)c1ccco1)CCC(N)=O [Compound 49]	19.1 µM	5.62	–	460,000 M-1 sec-1	–	–	–	–
CCOC(=O)/C=C/[C@H](CCC(N)=O)NC(=O)[C@H](CSC)NC(=O)[C@H](CC(C)C)NC(=O)OCc1ccccc1 [Compound 142]	> 320 µM	5.05	–	2,929 M-1 sec-1	–	–	–	–
CC(C)C[C@H](NC(=O)OCc1ccccc1)C(=O)N[C@@H](Cc1ccccc1)C(=O)N[C@H](/C=C/C(=O)OC1CCCC1)CCC(N)=O [Compound 18, Cyclopentyl-3-(CBZ-L-Leu-L-Phe-L-Gln)-E-Propenoate]	> 100 µM	6.19	–	7,700 M-1 sec-1	–	4.82	–	–
CCOC(=O)/C=C/[C@H](CCC(N)=O)NC(=O)[C@H](CSCC)NC(=O)[C@H](CC(C)C)NC(=O)OCc1ccccc1 [Compound 143]	> 320 µM	5.00	–	2,963 M-1 sec-1	–	–	–	–
CCOC(=O)/C=C/[C@H](CCC(N)=O)NC(=O)[C@H](Cc1ccc(F)cc1)NC(=O)[C@@H](NC(=O)SC1CCCC1)C(C)(C)Sc1ccc([N+](=O)[O-])cc1 [Compound 185]	> 100 µM	6.30	–	600,000 M-1 sec-1	–	–	–	–
